The values below come from PubChem BioAssay AID1259411 (Chemical Carcinogenesis Research Information System (CCRIS), 2018).

Active and inactive are the calls of the source. No rule for the calls is given here.

The subject of this data set is rodent carcinogenicity bioassays, tumor incidence. Description: CCRIS carcinogenicity studies. An outline of the steps: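 Archive of carcinogenicity, mutagenicity, tumor promotion and tumor inhibition results drawn from journals, NCI reports and other sources, expert-reviewed; covers 1985-2011 and is no longer updated.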

As for `OCC(CO)NC1CC(O)(CO)C(O)C(O)C1O` (stereo not drawn), the carcinogen call (Species: MOUSE, Strain/Sex: CD-1/FEMALE, Route: GAVAGE, Dose: 0, 15, 50, 150 MG/KG/D IN DISTILLED WATER (STUDY DURATION: 105 WK), Dose: 0, 15, 50, 150 MG/KG/D IN DISTILLED WATER (STUDY DURATION: 105 WK)) is “inactive; negative”; the carcinogen call (Species: MOUSE, Strain/Sex: CD-1/MALE, Route: GAVAGE, Dose: 0, 15, 50, 150 MG/KG/D IN DISTILLED WATER (STUDY DURATION: 105 WK), Dose: 0, 15, 50, 150 MG/KG/D IN DISTILLED WATER (STUDY DURATION: 105 WK)) is “inactive; negative”; the carcinogen call (Species: RAT, Strain/Sex: F344/FEMALE, Route: GAVAGE, Dose: 0, 3, 10, 30 MG/KG/D IN DISTILLED WATER FOR 24 MO (STUDY DURATION: 110 WK), Dose: 0, 3, 10, 30 MG/KG/D IN DISTILLED WATER FOR 24 MO (STUDY DURATION: 110 WK)) is “inactive; negative”; the carcinogen call (Species: RAT, Strain/Sex: F344/MALE, Route: GAVAGE, Dose: 0, 3, 10, 30 MG/KG/D IN DISTILLED WATER FOR 24 MO (STUDY DURATION: 110 WK), Dose: 0, 3, 10, 30 MG/KG/D IN DISTILLED WATER FOR 24 MO (STUDY DURATION: 110 WK)) was “inactive; negative”.

Consider `CC(C)(C)c1cc(O)c(C(C)(C)C)cc1O`, for which the carcinogen call (Species: HAMSTER, Strain/Sex: SYRIAN/MALE, Route: ORAL, Dose: 1% IN DIET FOR 24 WK (STUDY DURATION: 24 WK), Tumor Site: Type of Lesion: FORESTOMACH: PAPILLOMA) is “active; positive”.

`O=[As](O)(O)O`: the carcinogen call reads like this: (Species: MOUSE, Strain/Sex: SWISS/FEMALE, Route: INTRAVENOUS, Dose: 0, 0.5 MG/KG/WK FOR 20 WK (STUDY DURATION: 96 WK)) “inactive; negative”; (Species: MOUSE, Strain/Sex: SWISS/MALE, Route: INTRAVENOUS, Dose: 0, 0.5 MG/KG/WK FOR 20 WK (STUDY DURATION: 96 WK)) “inactive; negative”.

As to `C[C@]12CC[C@@H]3c4ccc(O)cc4CC[C@H]3[C@@H]1CCC2=O`, the carcinogen call reads like this: (Species: HAMSTER, Route: SUBCUTANEOUS, SUBCUTANEOUS IMPLANT, Tumor Site: Type of Lesion: KIDNEY) “active; positive”; (Species: HAMSTER, Strain/Sex: SYRIAN/MALE, Route: SUBCUTANEOUS IMPLANT, Dose: 0, 20 MG PELLET, SINGLE DOSE, Tumor Site: Type of Lesion: KIDNEY) “active; positive”; (Species: HAMSTER, Strain/Sex: SYRIAN/MALE, Route: SUBCUTANEOUS IMPLANT, Dose: 0, 20 MG IN PELLETS IMPLANTED EVERY 2.5 MO FOR 9 MO (STUDY DURATION: 9 MO), Tumor Site: Type of Lesion: KIDNEY: TUMOR) “active; positive”; (Species: HAMSTER, Strain/Sex: SYRIAN/MALE, Route: SUBCUTANEOUS, Tumor Site: Type of Lesion: KIDNEY, PITUITARY GLAND: ADENOMA) “active; positive”; (Species: HUMAN, Tumor Site: Type of Lesion: UTERUS (ENDOMETRIUM)) “active; positive”; (Species: MOUSE, Route: ORAL, SUBCUTANEOUS, DERMAL, SUBCUTANEOUS IMPLANT, Tumor Site: Type of Lesion: MAMMARY GLAND) “active; positive”. Moreover, the carcinogen call by setting is: (Species: MOUSE, Strain/Sex: C3H, C3HE(MTV-)/MALE, Route: ORAL, Dose: 125, 2000 UG/L IN DRINKING WATER, Tumor Site: Type of Lesion: MAMMARY GLAND) “active; positive”; (Species: MOUSE, Strain/Sex: C3R3(MTV+)/MALE, Route: DIET, Dose: 0, 0.06, 0.6, 6 UG/D, Tumor Site: Type of Lesion: MAMMARY GLAND) “active; positive”; (Species: MOUSE, Strain/Sex: GRS/AFIB(MTV+)/FEMALE, Route: ORAL, Dose: 0, 0.5 UG/ML FOR 14-25 WK IN DRINKING WATER, Tumor Site: Type of Lesion: UTERUS) “active; positive”; (Species: RAT, Route: SUBCUTANEOUS, SUBCUTANEOUS IMPLANT, Tumor Site: Type of Lesion: ADRENAL GLAND, KIDNEY, MAMMARY GLAND, PITUITARY GLAND, URINARY BLADDER, Tumor Site: Type of Lesion: ADRENAL GLAND, KIDNEY, MAMMARY GLAND, PITUITARY GLAND, URINARY BLADDER) “active; positive”; (Species: RAT, Strain/Sex: AUGUST/MALE,FEMALE, Route: SUBCUTANEOUS IMPLANT, Dose: 8-12 MG PELLET, SINGLE DOSE, Tumor Site: Type of Lesion: MAMMARY GLAND) “active; positive”; (Species: RAT, Strain/Sex: AXC/MALE,FEMALE, Route: SUBCUTANEOUS IMPLANT, Dose: 8-12 MG PELLET, SINGLE DOSE, Tumor Site: Type of Lesion: MAMMARY GLAND) “active; positive”. Besides, the carcinogen call runs as follows: (Species: RAT, Strain/Sex: COPENHAGEN/MALE,FEMALE, Route: SUBCUTANEOUS IMPLANT, Dose: 8-12 MG PELLET, SINGLE DOSE, Tumor Site: Type of Lesion: URINARY BLADDER) “active; positive”; (Species: RAT, Strain/Sex: F344/MALE,FEMALE, Route: SUBCUTANEOUS IMPLANT, Dose: 8-12 MG PELLET, SINGLE DOSE, Tumor Site: Type of Lesion: MAMMARY GLAND) “active; positive”.

As to `CCc1ccccc1`, the carcinogen call by setting is: (Species: MOUSE, Strain/Sex: B6C3F1/FEMALE, Route: INHALATION, Dose: 0, 75, 250, 750 PPM 6 HR/D 5 D/WK FOR 103 WK (STUDY DURATION: 104 WK), Dose: 0, 75, 250, 750 PPM 6 HR/D 5 D/WK FOR 103 WK (STUDY DURATION: 104 WK), Tumor Site: Type of Lesion: LIVER: HEPATOCELLULAR ADENOMA, HEPATOCELLULAR ADENOMA OR CARCINOMA) “active; positive”; (Species: MOUSE, Strain/Sex: B6C3F1/MALE, Route: INHALATION, Dose: 0, 75, 250, 750 PPM 6 HR/D 5 D/WK FOR 103 WK (STUDY DURATION: 104 WK), Dose: 0, 75, 250, 750 PPM 6 HR/D 5 D/WK FOR 103 WK (STUDY DURATION: 104 WK), Tumor Site: Type of Lesion: LUNG: ALVEOLAR/BRONCHIOLAR ADENOMA, ALVEOLAR/BRONCHIOLAR ADENOMA OR CARCINOMA) “active; positive”; (Species: RAT, Strain/Sex: F344/FEMALE, Route: INHALATION, Dose: 0, 75, 250, 750 PPM 6 HR/D 5 D/WK FOR 104 WK (STUDY DURATION: 105 WK), Dose: 0, 75, 250, 750 PPM 6 HR/D 5 D/WK FOR 104 WK (STUDY DURATION: 105 WK), Tumor Site: Type of Lesion: KIDNEY (RENAL TUBULE): ADENOMA) “active; positive”; (Species: RAT, Strain/Sex: F344/MALE, Route: INHALATION, Dose: 0, 75, 250, 750 PPM 6 HR/D 5 D/WK FOR 104 WK (STUDY DURATION: 105 WK), Dose: 0, 75, 250, 750 PPM 6 HR/D 5 D/WK FOR 104 WK (STUDY DURATION: 105 WK), Tumor Site: Type of Lesion: KIDNEY (RENAL TUBULE): ADENOMA) “active; positive”; (Species: RAT, Strain/Sex: STRAIN-CD/FEMALE, Route: INTRAGASTRIC, Dose: 0, 500 MG/KG IN OLIVE OIL 1/D 4-5 D/WK FOR 104 WK (STUDY DURATION: 104 WK)) “inactive; negative”; (Species: RAT, Strain/Sex: STRAIN-CD/MALE, Route: INTRAGASTRIC, Dose: 0, 500 MG/KG IN OLIVE OIL 1/D 4-5 D/WK FOR 104 WK (STUDY DURATION: 104 WK)) “inactive; negative”.

Regarding `COP(=S)(OC)SCn1nnc2ccccc2c1=O`, the carcinogen call (Species: MOUSE, Strain/Sex: B6C3F1/FEMALE, Route: ORAL, Dose: 0, 62.5, 125 PPM IN DIET FOR 80 WK (STUDY DURATION: 92-93 WK), Dose: 0, 62.5, 125 PPM IN DIET FOR 80 WK (STUDY DURATION: 92-93 WK)) was “inactive; negative”; the carcinogen call (Species: MOUSE, Strain/Sex: B6C3F1/MALE, Route: ORAL, Dose: 0, 31.3, 62.5 PPM IN DIET FOR 80 WK (STUDY DURATION: 92-93 WK), Dose: 0, 31.3, 62.5 PPM IN DIET FOR 80 WK (STUDY DURATION: 92-93 WK)) was “inactive; negative”; the carcinogen call (Species: RAT, Strain/Sex: OSBORNE-MENDEL/FEMALE, Route: ORAL, Dose: 0, 62.5, 125 PPM IN DIET FOR 80 WK (STUDY DURATION: 114-115 WK), Dose: 0, 62.5, 125 PPM IN DIET FOR 80 WK (STUDY DURATION: 114-115 WK)) was “inactive; negative”; the carcinogen call (Species: RAT, Strain/Sex: OSBORNE-MENDEL/MALE, Route: ORAL, Dose: 0, 78, 156 PPM IN DIET FOR 80 WK (STUDY DURATION: 114-115 WK), Dose: 0, 78, 156 PPM IN DIET FOR 80 WK (STUDY DURATION: 114-115 WK), Tumor Site: Type of Lesion: THYROID GLAND: TUMOR, PANCREAS: ISLET CELL ADENOMA OR CARCINOMA) is “equivocal”; the carcinogen call (Species: Rat, Strain/Sex: Wistar/Female, Route: Oral, Dose: 0, 15, 45 ppm (vehicle= 1% DAB8 peanut oil) in feed for 24 mo., Dose: 0, 15, 45 ppm (vehicle= 1% DAB8 peanut oil) in feed for 24 mo.) was “inactive; negative; purity = 87.2%”; the carcinogen call (Species: Rat, Strain/Sex: Wistar/Male, Route: Oral, Dose: 0, 15, 45 ppm (vehicle= 1% DAB8 peanut oil) in feed for 24 mo., Dose: 0, 15, 45 ppm (vehicle= 1% DAB8 peanut oil) in feed for 24 mo.) was “inactive; negative; purity = 87.2%”.
